From patent US20060069132A1, “Azolecarboxamide herbicides” (priority 2004, published 2006)

How the values were obtained:
[1] = tested on: small flower umbrella sedge; test: Test B flooded paddy test; type: in vivo, Cyperus difformis; conditions: 1000 g ai/ha, scale 0 to 100 (0 no effect, 100 complete control)
In short: (§1)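 Formulated test chemicals went onto postemergence plants measuring 2 to 18 cm, at one to four leaves. For the paddy assay, species had reached two leaves. Scoring took place 13–15 days later by eye, relative to untreated plants, using 0 for no effect up to 100 for full control.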

ducksalad = test: Test B flooded paddy test; type: in vivo, Heteranthera limosa; conditions: 1000 g ai/ha, scale 0 to 100 (0 no effect, 100 complete control)
In short: as §1

rice [2] = test: Test B flooded paddy test; type: in vivo, Oryza sativa; conditions: 1000 g ai/ha, scale 0 to 100 (0 no effect, 100 complete control)
In short: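 Treated at 2-leaf (paddy) or 1–4-leaf, 2–18 cm (postemergence); greenhouse 13–15 d; visual score vs control, 0 none to 100 complete control; dash = not tested.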

rice [3] = test: Test B pre-/postemergence herbicide test; type: in vivo, Oryza sativa; conditions: 0 = no effect, 100 = complete control, preemergence
In short: (§2)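 Herbicidal effect was judged by eye on a 0–100 scale after plants stood 13 to 15 days in the greenhouse following pre- or postemergence treatment with surfactant-containing formulations.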

lambsquarters = test: Test B pre-/postemergence herbicide test; type: in vivo, Chenopodium album; conditions: for Lambsquarters plant response rating: postemergence
In short: as §2

velvetleaf [4] = test: Test B pre-/postemergence herbicide test; type: in vivo, Abutilon theophrasti; conditions: for Velvetleaf plant response rating: postemergence
In short: as §2

morningglory [5] = test: Test B pre-/postemergence herbicide test; type: in vivo, Ipomoea coccinea; conditions: for Morningglory plant response rating: postemergence
In short: (§3)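 Plants compared with untreated controls 13–15 days post-treatment and given a visual 0–100 injury score. Applications: preemergence to seeds; postemergence at 1- to 4-leaf (2–18 cm); paddy species flooded, 2-leaf stage. Vehicle non-phytotoxic, surfactant included.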

pigweed = test: Test B pre-/postemergence herbicide test; type: in vivo, Amaranthus retroflexus; conditions: for Pigweed plant response rating: postemergence
In short: as §2

velvetleaf [6] = test: Test A pre-/postemergence herbicide test; type: in vivo, Abutilon theophrasti
In short: (§4)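 Both application timings were run together: directed soil spray over freshly planted seeds in sandy loam, and runoff spray onto 2–10 cm seedlings. Evaluation after ~10 days in greenhouse used a 0–100 visual scale versus untreated controls.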

giant foxtail [7] = test: Test A pre-/postemergence herbicide test; type: in vivo, Setaria faberi
In short: as §4

morningglory [8] = test: Test A pre-/postemergence herbicide test; type: in vivo, Ipomoea spp.
In short: as §4

cocklebur = test: Test B pre-/postemergence herbicide test; type: in vivo, Xanthium strumarium; conditions: for Cocklebur plant response rating: postemergence
In short: as §3

barnyardgrass [9] = test: Test A pre-/postemergence herbicide test; type: in vivo, Echinochloa crus-galli
In short: as §4

giant foxtail [10] = test: Test B pre-/postemergence herbicide test; type: in vivo, Setaria faberi; conditions: for Foxtail, Giant plant response rating: postemergence
In short: as §2

corn = test: Test B pre-/postemergence herbicide test; type: in vivo, Zea mays; conditions: for Corn plant response rating: postemergence
In short: as §2

blackgrass = test: Test B postemergence herbicide test; type: in vivo, Alopecurus myosuroides; conditions: postemergence
In short: as §1

large crabgrass [11] = test: Test B pre-/postemergence herbicide test; type: in vivo, Digitaria sanguinalis; conditions: for Crabgrass, Large plant response rating: postemergence
In short: as §2

large crabgrass [12] = test: Test A pre-/postemergence herbicide test; type: in vivo, Digitaria sanguinalis
In short: as §4

Surinam grass = test: Test B pre-/postemergence herbicide test; type: in vivo, Urochloa decumbens; conditions: for Surinam Grass plant response rating: postemergence
In short: as §2

redroot pigweed = test: Test A pre-/postemergence herbicide test; type: in vivo, Amaranthus retroflexus
In short: as §4

wheat = test: Test B postemergence herbicide test; type: in vivo, Triticum aestivum; set-up: key to Wheat plant response rating: 0 = no effect, 100 = complete control; conditions: postemergence
In short: (§5)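 Plants grow to 1- to 4-leaf stage (2–18 cm) for postemergence spraying, or to 2-leaf stage for the paddy test. Formulated compound is applied. Greenhouse holding lasts 13–15 days. Response is scored visually relative to controls, 0 no effect to 100 complete control; a dash means no result.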

barnyardgrass [13] = test: Test B flooded paddy test; type: in vivo, Echinochloa crus-galli; conditions: 1000 g ai/ha, scale 0 to 100 (0 no effect, 100 complete control)
In short: as §1

wild oat = test: Test B postemergence herbicide test; type: in vivo, Avena fatua; conditions: postemergence
In short: as §5

barnyardgrass [14] = test: Test B pre-/postemergence herbicide test; type: in vivo, Echinochloa crus-galli; conditions: for Barnyardgrass plant response rating: postemergence
In short: as §3

[15] = 125 g ai/ha, 0 = no effect, 100 = complete control, preemergence
[16] = 500 g ai/ha, visual rating, 0 = no effect, 100 = complete control, preemergence
[17] = 125 g ai/ha, visual rating, scale 0 (no effect) to 100 (complete control)
[18] = 500 g ai/ha, scale 0 to 100, 0 is no effect, 100 is complete control
[19] = Postemergence, 500 g ai/ha, 0 to 100 scale, 0 no effect, 100 complete control
[20] = Postemergence, 2000 g ai/ha, 0 to 100 scale, 0 no effect, 100 complete control
[21] = Preemergence, 2000 g ai/ha, visual rating, 0 to 100 scale (0 no effect, 100 complete control)
[22] = preemergence, 500 g ai/ha, visual injury, 0 to 100 scale (0 no effect, 100 complete control)

CCn1nc(C(C)(C)C)cc1C(=O)Nc1cc(C(N)=O)ccc1F [Compound 271]
Sedge, Umbrella plant response rating [1]: 40 | Ducksalad plant response rating (ducksalad): 40 | Rice plant response rating (rice [2]): 20 | Rice plant response rating (0 to 100 scale) (rice [3]; 125 g ai/ha): 0 | Plant response rating, Rice (rice [3]; 500 g ai/ha, visual rating): 0 | Lambsquarters plant response rating (0 to 100 scale) (lambsquarters; [15]): 0 | Plant response rating, Lambsquarters (lambsquarters; [16]): 60 | Lambsquarters plant response rating (lambsquarters; [17]): 10 | Lambsquarters plant response rating (lambsquarters; [18]): 60 | Velvetleaf plant response rating (0 to 100 scale) (velvetleaf [4]; [15]): 0 | Plant response rating, Velvetleaf (velvetleaf [4]; [16]): 0 | Velvetleaf plant response rating (velvetleaf [4]; [17]): 0 | Velvetleaf plant response rating (velvetleaf [4]; [18]): 0 | Morningglory plant response rating (0 to 100 scale) (morningglory [5]; [15]): 0 | Plant response rating, Morningglory (morningglory [5]; [16]): 0 | Morningglory plant response rating (morningglory [5]; [17]): 0 | Morningglory plant response rating (morningglory [5]; [18]): 0 | Pigweed plant response rating (0 to 100 scale) (pigweed; [15]): 0 | Plant response rating, Pigweed (pigweed; [16]): 20 | Pigweed plant response rating (pigweed; [17]): 50 | Pigweed plant response rating (pigweed; [18]): 80 | Velvetleaf plant response rating (velvetleaf [6]; [19]): 10 | Plant response rating, Velvetleaf (velvetleaf [6]; [20]): 40 | Velvetleaf plant response rating (velvetleaf [6]; [21]): 5 | Velvetleaf plant response rating (velvetleaf [6]; [22]): 0 | Foxtail, Giant plant response rating (giant foxtail [7]; [19]): 10 | Plant response rating, Foxtail, Giant (giant foxtail [7]; [20]): 20 | Foxtail, Giant plant response rating (giant foxtail [7]; [21]): 70 | Foxtail, Giant plant response rating (giant foxtail [7]; [22]): 0 | Morningglory plant response rating (morningglory [8]; [19]): 10 | Plant response rating, Morningglory (morningglory [8]; [20]): 30 | Morningglory plant response rating (morningglory [8]; [21]): 0 | Morningglory plant response rating (morningglory [8]; [22]): 0 | Cocklebur plant response rating (0 to 100 scale) (cocklebur; [15]): 0 | Plant response rating, Cocklebur (cocklebur; [16]): 0 | Cocklebur plant response rating (cocklebur; [17]): 0 | Cocklebur plant response rating (cocklebur; [18]): 0 | Barnyardgrass plant response rating (barnyardgrass [9]; [19]): 10 | Plant response rating, Barnyardgrass (barnyardgrass [9]; [20]): 30 | Barnyardgrass plant response rating (barnyardgrass [9]; [21]): 75 | Barnyardgrass plant response rating (barnyardgrass [9]; [22]): 5 | Foxtail, Giant plant response rating (0 to 100 scale) (giant foxtail [10]; [15]): 0 | Plant response rating, Foxtail, Giant (giant foxtail [10]; [16]): 0 | Foxtail, Giant plant response rating (giant foxtail [10]; [17]): 0 | Foxtail, Giant plant response rating (giant foxtail [10]; [18]): 0 | Corn plant response rating (0 to 100 scale) (corn; [15]): 0 | Plant response rating, Corn (corn; [16]): 10 | Corn plant response rating (corn; [17]): 0 | Corn plant response rating (corn; [18]): 20 | Blackgrass plant response rating (blackgrass; [17]): 10 | Blackgrass plant response rating (blackgrass; [18]): 20 | Crabgrass, Large plant response rating (0 to 100 scale) (large crabgrass [11]; [15]): 0 | Plant response rating, Crabgrass, Large (large crabgrass [11]; [16]): 0 | Crabgrass, Large plant response rating (large crabgrass [11]; [17]): 0 | Crabgrass, Large plant response rating (large crabgrass [11]; [18]): 0 | Crabgrass, Large plant response rating (large crabgrass [12]; [19]): 10 | Plant response rating, Crabgrass, Large (large crabgrass [12]; [20]): 10 | Crabgrass, Large plant response rating (large crabgrass [12]; [21]): 15 | Crabgrass, Large plant response rating (large crabgrass [12]; [22]): 0 | Surinam Grass plant response rating (0 to 100 scale) (Surinam grass; [15]): 0 | Plant response rating, Surinam Grass (Surinam grass; [16]): 0 | Surinam Grass plant response rating (Surinam grass; [17]): 0 | Surinam Grass plant response rating (Surinam grass; [18]): 0 | Pigweed plant response rating (redroot pigweed; [19]): 45 | Plant response rating, Pigweed (redroot pigweed; [20]): 90 | Pigweed plant response rating (redroot pigweed; [21]): 60 | Pigweed plant response rating (redroot pigweed; [22]): 60 | Wheat plant response rating (wheat; [17]): 30 | Wheat plant response rating (wheat; [18]): 30 | Barnyardgrass plant response rating (barnyardgrass [13]): 0 | Oat, Wild plant response rating (wild oat; [17]): 20 | Oat, Wild plant response rating (wild oat; [18]): 30 | Barnyardgrass plant response rating (0 to 100 scale) (barnyardgrass [14]; [15]): 0 | Plant response rating, Barnyardgrass (barnyardgrass [14]; [16]): 0 | Barnyardgrass plant response rating (barnyardgrass [14]; [17]): 0 | Barnyardgrass plant response rating (barnyardgrass [14]; [18]): 0
